Measured values: patent publication US12018011B2, “Macrocyclic compounds and compositions, and methods of preparing and using the same” (Kura Oncology, Inc., priority 2021, dated 2024)
pIC50: −log10 of the molar value.

What follows are compounds tested against T1, Recombinant human farnesyl transferase (FTase) (Homo sapiens, UniProt P49356) (assay: FTase fluorescence assay (farnesylation of dansyl-GCVLS peptide)). Conditions: recombinant human FTase 2.5 nM, Dansyl-GCVLS 85 nM, FPP 30 nM, 30° C., 50 minutes.
T1 construct: purchased Crelux (Martinsried, Germany)
Format: biochemical
Source text: T24/83 cell line was purchased from the European Collection of Authenticated Cell Cultures (Salisbury, UK). Recombinant human farnesyl transferase (FTase) and geranylgeranyl transferase type-1 (GGTase) were obtained from Crelux (Martinsried, Germany). Dansyl labelled GCVLS peptide was purchased from Bachem (Torrance, CA), and Dansyl labelled GCVLL peptide was purchased from Bio Synthesis (Lewisville, TX). Farnesyl Pyrophosphate (FPP) and Geranylgeranyl pyrophosphate (GGPP) were purchased from Cayman (Ann Arbor, MI).
Specific biochemical activity of the compounds disclosed herein as FTase inhibitors was determined by measuring the ability of the compounds to block the farnesylation by recombinant FTase of fluorescent (i.e., dansyl-labeled) test substrates derived from the CAAX box of farnesylated proteins, such as the peptide GCVLS.
The IC50 value of the compounds disclosed herein as inhibitors of Ftase and/or GGTase, was determined by measuring the concentration (provided in nM) necessary to achieve inhibition of enzyme activity by 50% (IC50). […] Compounds having a low IC50 value against FTase, for example an IC50 (FTase)<100 nM, such as an IC50 (FTase)<10 nM, are preferred. Compounds having a low IC50 value against FTase and a high IC50 value against GGTase, for example an IC50 (FTase)<100 nM, such as an IC50 (FTase)<10 nM, and an IC50 (GGTase)>100 nM, are potent and selective inhibitors of FTase, and are particularly preferred.
The inhibition activities of the compounds disclosed herein against Ftase and GGTase were measured in the respective fluorescence assays as follows:
For the FTase assay, recombinant human FTase (2.5 nM), Dansyl labelled GCVLS peptide (85 nM), FPP (30 nM) and inhibitor were mixed in assay buffer (50 mM Tris, pH 7.5, 10 mM magnesium chloride, 10 μM zinc chloride, 0.08% CHAPS, 5 mM dithiothreitol) and incubated in a total volume of 20 μL at 30° C. for 50 minutes.
For both the FTase assay and GGTase assay, fluorescence intensity was detected (excitation at 340 nm and emission at 486 nm) using EnVision (PerkinElmer; Waltham, MA), IC50 determinations were performed using a sigmoidal dose-response model with Xlfit software (IDBS, Inc.; Boston, MA), and tipifarnib was used as a positive control. All the assay plates for each assay passed the QC criteria (S/B, Z factor).

pIC50 | SMILES
7.00 to 8.00 | Cn1cncc1C1(O)c2ccc(Br)c(c2)COc2cccc(c2)-c2nccc3ccc1cc23 (stereo not shown) [Compound 84, 4^4-bromo-3-(1-methyl-1H-imidazol-5-yl)-6-oxa-2(1,7)-isoquinolina-1,4(1,3)-dibenzenacyclohexaphan-3-ol]
≥ 8.00 | COc1cc2c3cc(ccc3n1)C(O)(c1cncn1C)c1ccc(C#N)c(c1)COc1cccc-2c1 (stereo not shown) [Compound 53, 3-hydroxy-2^2-methoxy-3-(1-methyl-1H-imidazol-5-yl)-6-oxa-2(4,6)-quinolina-1,4(1,3)-dibenzenacyclohexaphane-4^4-carbonitrile]
≥ 8.00 | Cn1cncc1[C@@]1(N)c2ccc(C#N)c(c2)COc2cccc(c2)-c2cc(OC3COC3)nc3ccc1cc23 [(S)-89, (S)-3-amino-3-(1-methyl-1H-imidazol-5-yl)-2^2-(oxetan-3-yloxy)-6-oxa-2(4,6)-quinolina-1,4(1,3)-dibenzenacyclohexaphane-4^4-carbonitrile]
7.00 to 8.00 | Cn1cncc1[C@]1(N)c2ccc(C#N)c(c2)COc2cccc(c2)-c2cc(OC3COC3)nc3ccc1cc23 [(R)-89, (R)-3-amino-3-(1-methyl-1H-imidazol-5-yl)-2^2-(oxetan-3-yloxy)-6-oxa-2(4,6)-quinolina-1,4(1,3)-dibenzenacyclohexaphane-4^4-carbonitrile]
< 7.00 | [2H]C([2H])([2H])n1c(=O)cc2c3cc(ccc31)[C@](O)(c1cncn1C)c1ccc(C#N)c(c1)COc1cccc-2c1 (racemic) [(R)-55, (R)-3-hydroxy-21-(methyl-d3)-3-(1-methyl-1H-imidazol-5-yl)-2^2-oxo-2^1,2^2-dihydro-6-oxa-2(4,6)-quinolina-1,4(1,3)-dibenzenacyclohexaphane-4^4-carbonitrile]
7.00 to 8.00 | Cn1cncc1C1(O)c2ccc(C#N)c(c2)COc2cccc(c2)-c2nccc3ccc1cc23 (stereo not shown) [Compound 85, 3-hydroxy-3-(1-methyl-1H-imidazol-5-yl)-6-oxa-2(1,7)-isoquinolina-1,4(1,3)-dibenzenacyclohexaphane-4^4-carbonitrile]
≥ 8.00 | Cn1cncc1C1(O)c2ccc(C#N)c(c2)COc2cccc(c2)-c2cc(=O)[nH]c3ccc1cc23 (stereo not shown) [Compound 54, 3-hydroxy-3-(1-methyl-1H-imidazol-5-yl)-2^2-oxo-2^1,2^2-dihydro-6-oxa-2(4,6)-quinolina-1,4(1,3)-dibenzenacyclohexaphane-4^4-carbonitrile]
≥ 8.00 | COc1cc2c3cc(cnc3c1)C(O)(c1cncn1C)c1ccc(C#N)c(c1)COc1cccc-2c1 (stereo not shown) [Compound 88, 3-hydroxy-2^7-methoxy-3-(1-methyl-1H-imidazol-5-yl)-6-oxa-2(5,3)-quinolina-1,4(1,3)-dibenzenacyclohexaphane-4^4-carbonitrile]
< 7.00 | Cn1cncc1[C@]1(N)c2ccc(C#N)c(c2)COc2cccc(c2)-c2nccc3ccc1cc23 [(R)-86, (R)-3-amino-3-(1-methyl-1H-imidazol-5-yl)-6-oxa-2(1,7)-isoquinolina-1,4(1,3)-dibenzenacyclohexaphane-4^4-carbonitrile]

The next lines start with the compound.

SMILES | pIC50
[2H]C([2H])([2H])n1c(=O)cc2c3cc(ccc31)[C@](N)(c1cncn1C)c1ccc(C#N)c(c1)CCc1cccc-2c1 (racemic) [(S)-8, (S)-3-amino-2^1-(methyl-d3)-3-(1-methyl-1H-imidazol-5-yl)-22-oxo-2^1,2^2-dihydro-2(4,6)-quinolina-1,4(1,3)-dibenzenacyclohexaphane-4^4-carbonitrile] | < 7.00
Cn1cncc1[C@]1(O)c2ccc(Cl)c(c2)OCCc2cccc(c2)-c2cc(=O)n(C3CC3)c3ccc1cc23 (racemic) [(R)-29, (R)-4^4-chloro-2^1-cyclopropyl-3-hydroxy-3-(1-methyl-1H-imidazol-5-yl)-2^1,2^2-dihydro-5-oxa-2(4,6)-quinolina-1,4(1,3)-dibenzenacycloheptaphan-2^2-one] | < 7.00
Cc1cn([C@@H]2c3ccc(C#N)c(c3)COc3cccc(c3)-c3cc(C#N)nc4ccc2cc34)cn1 [(S)-90, (S)-3-(4-methyl-1H-imidazol-1-yl)-6-oxa-2(4,6)-quinolina-1,4(1,3)-dibenzenacyclohexaphane-2^2,4^4-dicarbonitrile] | 7.00 to 8.00
[2H]C([2H])([2H])n1c(=O)cc2c3cc(ccc31)[C@](N)(c1cncn1C)c1ccc(Cl)c(c1)COc1cccc-2c1 (racemic) [(R)-47, (R)-3-amino-4^4-chloro-2^1-(methyl-d3)-3-(1-methyl-1H-imidazol-5-yl)-2^1,2^2-dihydro-6-oxa-2(4,6)-quinolina-1,4(1,3)-dibenzenacyclohexaphan-2^2-one] | < 7.00
Cn1cncc1C1(N)c2ccc(Br)c(c2)COc2cccc(c2)-c2cc(Cl)nc3ccc1cc23 (stereo not shown) [Compound 74, 4^4-bromo-2^2-chloro-3-(1-methyl-1H-imidazol-5-yl)-6-oxa-2(4,6)-quinolina-1,4(1,3)-dibenzenacyclohexaphan-3-amine] | 7.00 to 8.00
Cn1cncc1[C@]1(N)c2ccc(Cl)c(c2)COc2cccc(c2)-c2cc(C#N)nc3ccc1cc23 (racemic) [(R)-48, (R)-3-amino-4^4-chloro-3-(1-methyl-1H-imidazol-5-yl)-6-oxa-2(4,6)-quinolina-1,4(1,3)-dibenzenacyclohexaphane-2^2-carbonitrile] | 7.00 to 8.00
[2H]C([2H])([2H])n1cncc1[C@]1(N)c2ccc(C#N)c(c2)COc2cccc(c2)-c2cc(C#N)nc3ccc1cc23 (racemic) [(R)-70, (R)-3-amino-3-(1-(methyl-d3)-1H-imidazol-5-yl)-6-oxa-2(4,6)-quinolina-1,4(1,3)-dibenzenacyclohexaphane-2^2,4^4-dicarbonitrile] | 7.00 to 8.00
[2H]C([2H])([2H])n1c(=O)cc2c3cc(ccc31)[C@@H](n1ncnc1C)c1ccc(Cl)c(c1)COc1cccc-2c1 [(R)-079, (R)-4^4-chloro-2^1-(methyl-d3)-3-(5-methyl-1H-1,2,4-triazol-1-yl)-2^1,2^2-dihydro-6-oxa-2(4,6)-quinolina-1,4(1,3)-dibenzenacyclohexaphan-2^2-one] | 7.00 to 8.00
Cn1cncc1[C@]1(O)c2ccc(C#N)c(c2)OCc2cccc(c2)-c2cc(=O)n(C)c3ccc1cc23 (racemic) [(R)-18, (R)-3-hydroxy-2^1-methyl-3-(1-methyl-1H-imidazol-5-yl)-2^2-oxo-2^1,2^2-dihydro-5-oxa-2(4,6)-quinolina-1,4(1,3)-dibenzenacyclohexaphane-4^4-carbonitrile] | < 7.00
COc1cc2c3cc(ccc3n1)C(O)(c1cncn1C)c1cccc(c1)OCc1cccc-2c1 (stereo not shown) [Compound 10, 2^2-methoxy-3-(1-methyl-1H-imidazol-5-yl)-5-oxa-2(4,6)-quinolina-1,4(1,3)-dibenzenacyclohexaphan-3-ol] | < 7.00
Cc1cncn1[C@@H]1c2ccc(C#N)c(c2)COc2cccc(c2)-c2cc(C#N)nc3ccc1cc23 [(S)-91, (S)-3-(5-methyl-1H-imidazol-1-yl)-6-oxa-2(4,6)-quinolina-1,4(1,3)-dibenzenacyclohexaphane-2^2,4^4-dicarbonitrile] | < 7.00
Cn1cncc1[C@]1(O)c2ccc(Cl)c(c2)OCCc2cccc(c2)-c2cc(=O)[nH]c3ccc1cc23 (racemic) [(R)-25, (R)-4^4-chloro-3-hydroxy-3-(1-methyl-1H-imidazol-5-yl)-2^1,2^2-dihydro-5-oxa-2(4,6)-quinolina-1,4(1,3)-dibenzenacycloheptaphan-2^2-one] | < 7.00
Cn1cncc1[C@]1(N)c2ccc(C#N)c(c2)CCc2cccc(c2)-c2cc(C#N)nc3ccc1cc23 (racemic) [(S)-9, (S)-3-amino-3-(1-methyl-1H-imidazol-5-yl)-2(4,6)-quinolina-1,4(1,3)-dibenzenacyclohexaphane-2^2,4^4-dicarbonitrile] | < 7.00
[2H]C([2H])([2H])n1c(=O)cc2c3cc(ccc31)[C@H](n1ncnc1C)c1ccc(Cl)c(c1)COc1cccc-2c1 [(S)-079, (S)-4^4-chloro-2^1-(methyl-d3)-3-(5-methyl-1H-1,2,4-triazol-1-yl)-2^1,2^2-dihydro-6-oxa-2(4,6)-quinolina-1,4(1,3)-dibenzenacyclohexaphan-2^2-one] | < 7.00
Cn1cncc1C1(N)c2ccc(Br)c(c2)COc2cccc(c2)-c2nc(N)nc3ccc1cc23 (stereo not shown) [Compound 82, 4^4-bromo-3-(1-methyl-1H-imidazol-5-yl)-6-oxa-2(4,6)-quinazolina-1,4(1,3)-dibenzenacyclohexaphane-2^2,3-diamine] | ≥ 8.00
[2H]C([2H])([2H])n1c(=O)cc2c3cc(ccc31)[C@@H](n1cnc(C)n1)c1ccc(Cl)c(c1)COc1cccc-2c1 [(R)-080, (R)-4^4-chloro-2^1-(methyl-d3)-3-(3-methyl-1H-1,2,4-triazol-1-yl)-2^1,2^2-dihydro-6-oxa-2(4,6)-quinolina-1,4(1,3)-dibenzenacyclohexaphan-2^2-one] | 7.00 to 8.00
